# Source: US20250375434A1, “SMALL MOLECULES AND METHODS FOR INDUCING CARDIOMYOCYTE PROLIFERATION” (UNIVERSITY OF VIRGINIA PATENT FOUNDATION, priority 2024, published 2025)
# Key:
# [1] = system: VEGFR2 (KDR); settings: 12 h treatment, compared to the DMSO negative control
# Method: To further investigate the role of RTKs in compound-induced proliferation, we profiled the activity of 49 RTKs using a specialized array with the same protein lysates used for the RPPA.
# Cells were seeded in 60 mm Corning CellBind dishes, cultured for 6 days, serum starved for 4 h, and treated with compounds for 12 h with 3 replicates. At the end of the experiment, cells were treated with 1 mM peroxyvanadate (1 mM NaVO3, 0.1 μg/mL Catalase, 0.003% H2O2) for 15 min prior to cell lysis. Cells were then rinsed with ice-cold 1×PBS and lysed on ice for 15 min with lysis buffer (50 mM Tris-HCl pH 7.5, 150 mM NaCl, 0.1 mM EDTA, 1 mM DTT, 1 mM NaVO3, 0.5% TritonX-100) containing protease inhibitor cocktail (Sigma). Cell lysates were mechanically homogenized using 28-gauge syringes, spun down, and adjusted to equivalent concentrations. The Proteome Profiler Human Phospho-RTK Array Kit (R&D Systems) was used to measure phosphorylation activity of 49 RTKs. Briefly, the arrays with printed anti-RTK antibodies were blocked for 1 hour and incubated with 38.8 μg of total protein lysate overnight at 4° C. The arrays were then washed and incubated with anti-phospho-tyrosine antibodies conjugated to HRP and detected via chemiluminescence. Array films were scanned and Image Studio software (LI-COR) was used to quantify intensities of each spot. […]
# [2] = system: hiPSC-CMs (iCell Cardiomyocytes); assay: Live-cell proliferation assay (change in number of cells over 6 days)
# Method: Using the same live-cell proliferation assay we developed in the previous study [13], we confirmed the 5-point concentration-response profiles (0.1-10.0 μM) in three independent manufacturing lots of iCell Cardiomyocytes (FIG. 7). Briefly, hiPSC-CMs were stained with a low, non-toxic concentration of Hoechst 33342 and the same imaging fields of view were collected at both initial (day 0) and final (day 6) timepoints. We quantified the change in the number of cells, binucleation events, and DNA content distribution using the image segmentation and analysis pipeline described in the previous study [13].
# ICell Cardiomyocytes (Cellular Dynamics International) were seeded in 96-well or 384-well Corning CellBind plates at approximately 2.5×10^4 to 3.5×10^4 cells/cm^2. […] Cells were cultured for all experiments in a humidified environment at 37° C. with 5% CO2.
# Pharmacology Metrics—Based on concentration-dependent responses of changes in cell number, we quantified area under the curve (AUC) as the sum of the relative changes in cell number across the five concentrations of compound. As a measure of potency, we performed cubic B-spline interpolation and then calculated the minimum concentration needed to achieve 50% of the maximum effect.
# [3] = system: hiPSC-CMs (iCell Cardiomyocytes); assay: DNA content / ploidy and cell cycle phase analysis after 6 days of treatment
# [4] = system: hiPSC-CMs (iCell Cardiomyocytes); assay: DNA synthesis assay (48 h EdU incorporation)
# Method: ICell Cardiomyocytes (Cellular Dynamics International) were seeded in 96-well or 384-well Corning CellBind plates at approximately 2.5×10^4 to 3.5×10^4 cells/cm^2. Cells were cultured for 2 days in iCell Cardiomyocytes Plating Medium (Cellular Dynamics International) supplemented with 1% Penicillin/Streptomycin (P/S; Gibco) followed by an additional 4 days in iCell Cardiomyocytes Maintenance Medium (Cellular Dynamics International) supplemented with 1% P/S. For all experiments, cells were first serum starved for 4 h and then treated in William's E medium without phenol red (Gibco) supplemented with Primary Hepatocyte Cell Maintenance Cocktail B (Gibco) containing P/S, ITS+, GlutaMAX, and HEPES. Cells were cultured for all experiments in a humidified environment at 37° C. with 5% CO2.
# EdU incorporation and labeling with copper catalyzed click chemistry was used to measure DNA synthesis. Cells were treated in the presence of 1 μM EdU (Invitrogen) for 48 h, and subsequently fixed and permeabilized prior to incubation with the EdU click chemistry reaction mix—100 mM Tris HCL pH 7.0 (Gentrox), 4 mM CuSO4 (Sigma), 100 mM ascorbic acid (Sigma), and 5 μM Alexa Fluor 546 Azide (Click Chemistry Tools). After labelling EdU, cells were stained with anti-Cardiac Troponin T (Abcam) and DAPI (Sigma).
# Custom image analysis and processing pipelines were developed and implemented in MATLAB to quantify the number of nuclei/cells, percent EdU positive objects, percent Ki67 positive objects, multinucleation, DNA content, cell cycle phases, and ploidy.
# Classification—The binary segmented mask and background subtracted images were used to calculate the mean intensities of Hoechst 33342, DAPI, Cardiac-Troponin T, EdU, and Ki67 staining for each segmented object. […] Marker positivity thresholds were determined using Rosin's unimodal thresholding algorithm [63] on the mean intensity values for each segmented object.
# [5] = system: hiPSC-CMs (iCell Cardiomyocytes); assay: Multinucleation analysis after 6 days of treatment; format: cell-based, human; settings: 10 μM inhibitor alone or with C3, compared to negative control or compound treatment alone
# Method: Multinucleation Analysis—Multinucleated cells were identified based on the distance between neighboring nuclei. This distance threshold was determined using Cardiac-Troponin T staining to visualize cell borders. A morphological closing operation with a circular structuring element was applied to the binary segmented mask to merge and classify nuclei in multinucleated cells.
compound,measurement,setting,value
"Cc1cccc(-c2n[nH]cc2-c2ccc3ncccc3n2)n1 [C3, RepSox]",VEGFR2 (KDR) activation / expression,[1],induced
same,maximum-effect concentration,"[2]; 5-point concentration response 0.1-10 μM, 6 days",3.2 µM
same,proliferation (change in the number of cells over 6 days),"[2]; compound alone at Emax concentration, 6 days",induces proliferation
same,endoreplication cycles,[3],without additional endoreplication cycles
COc1cccc(-c2cc(=O)c3ccccc3o2)c1N [PD98059],effect of inhibitor alone on DNA synthesis (EdU incorporation),"[4]; 10 μM inhibitor alone, unstimulated hiPSC-CMs, 48 h",modest decreases
same,effect of inhibitor on C3 induced DNA synthesis,"[4]; 10 μM inhibitor in combination with 3.2 μM C3, 48 h",attenuated
same,effect of inhibitor on C3 induced proliferation (increase in cell numbers),"[2]; 10 μM inhibitor in combination with 3.2 μM C3, day 6",only INK and PI3K inhibition attenuated
CNC(=O)c1ccccc1Sc1ccc2c(/C=C/c3ccccn3)n[nH]c2c1 [axitinib],increase in multinucleation,[5],over 2 fold
C[C@]1(O)C[C@@H](c2nc(-c3ccc4ccc(-c5ccccc5)nc4c3)c3c(N)nccn32)C1 [linsitinib],effect of inhibitor on C3 induced DNA synthesis,"[4]; 0.1 μM inhibitor in combination with 3.2 μM C3, 48 hrs",modest effect in reducing
same,effect of inhibitor on late-stage proliferation metrics,"[2]; 0.1 μM inhibitor in combination with 3.2 μM C3, day 6",no effect
